# Measurements reported in patent publication US20250282734A1 (Bayer Aktiengesellschaft, priority 2021, published 2025).
# Where two headings read alike, the source gives them in different places. Marks after values point to notes of the source that are not given here.
# Experiments:
# [1] = Solubility of cholinate vs free acid and other salts, shake-flask method (Example 14); type: physicochemical
# Method: (§1) Preparation of FaSSIF (Fasted State Simulated Intestinal Fluid) blank solution: 4.2 g NaOH, 44.7 g NaH2PO4*2 H2O, and 61.86 g NaCl were dissolved in approximately 9.5 L demineralized water. Then, the pH of this solution was adjusted to 6.50+/−0.05 using HCl or NaOH, respectively. In the last step, the final volume was adjusted to 10.0 L by the addition of demineralized water.
# Preparation of the final FaSSIF solution: 4.48 g SIF (Simulated Intestinal Fluids) powder (provider: biorelevant.com, Product code: FFF01 (May 2022)) were dissolved in approximately 500 mL FaSSIF blank solution, then the final volume was adjusted to 2.0 L by the addition of FaSSIF blank solution. After 2 hours, the solution was considered to be ready to use and was used within 48 hours.
# as §1, with “FeSSIF (Fed” for “FaSSIF (Fasted”, “40.4” for “4.2”, “118.74” for “44.7”, “NaCl,” for “NaH2PO4*2 H2O,”, “82.4 mL glacial acetic acid” for “61.86 g NaCl”, “5.00+/−0.05” for “6.50+/−0.05”
# Preparation of the final FeSSIF solution: 22.4 g SIF powder (provider: biorelevant.com, Product code: FFF01 (May 2022)) were dissolved in approximately 500 mL FeSSIF blank solution, then the final volume was adjusted to 2.0 L by the addition of FeSSIF blank solution. The solution was considered to be ready to use immediately after manufacturing and was used within 48 hours.
# [2] = Hygroscopy, dynamic vapour sorption (DVS) isotherms (Example 15); type: physicochemical
# Method: Water sorption isotherms were determined using a DVS Resolution gravimetric sorption analyzer (London, UK), or a DVS Intrinsic instrument (Surface measurement Systems). The sample was dried for 1000 minutes at 0% relative humidity (R.H.). Afterwards the dry weight was recorded. […] The equilibrium criterion for each relative humidity set point was 0.002% per minute relative mass change as a function of time.
# [3] = Dissolution profile, flow through cell in FeSSIF / FaSSIF (Example 16); type: physicochemical
# Method: Prior to the measurements, the samples were micronized using a jet mill (MC DECJET 30) under nitrogen, with a pressure of 4.5 Bar for the injector and 4.0 Bar grinding pressure.
# Dissolution rates of the drug substance were then determined using a flow through cell (FTC) from Sotax. All experiments were conducted in triplicates.
# Then, the respective medium (FaSSIF or FeSSIF) was pumped through the cell with a pump rate of 2 mL/min for a total time of 14 minutes, resulting in a total volume of 28 mL. This volume was collected in time increments of 2 minutes, leading to 7 collected fractions with 4 mL each. The drug substance concentration of each fraction was determined by HPLC (external standard).
# [4] = Solubility free acid vs. salt, shake-flask method (Example 12); type: physicochemical
# [5] = Determination of exposure in rat after intragastric administration (Example 13); type: in vivo; settings: for AUC(0-t): female, plasma, po, read-out: AUC(0-tlast); for AUC(0-t) / AUC(0-tlast)norm: free acid in rat plasma
# Method: Determination of exposure after intragastric application of test compounds was performed in female conscious rats with a body weight of 0.2 kg (minimum) to 0.25 kg (maximum). The test compounds were applied as bolus via intragastric probe to unfed female rats in solution or suspension in the vehicle ethanol/solutol/water (v/v/v 10/40/50).
# At the indicated timepoints between 8 min and 24 h after dosing, 150 μl blood were sampled via a catheter from the vena jugularis. The samples were treated with K-EDTA as anticoagulant and stored cooled until further processing (refrigerator, 4° C.). The samples were centrifuged (15 min, 3000 rpm), then an aliquot of 100 μL was taken from the supernatant (plasma), precipitated by addition of 400 μL cold acetonitrile or methanol (abs.) and frozen at −20° C. over night. The samples were centrifuged (15 min, 3000 rpm), then 150 μL of the clear supernatant were taken for analytical testing. Analytics were performed using an Agilent 1200 HPLC-system with LCMS/MS detection.
# The applied dose of cholinate according to the invention was adjusted as compared to free acid according to the difference in molecular weight. The resulting equivalent doses were used for comparison.
smiles,measurement,setting,value
"O=C([O-])c1cc(NC(=O)C2(c3ccc(C(F)(F)F)cc3F)CC2)ccc1-c1cnn(C2CCC2)c1.[Na+] [Sodium salt, Sodium 2-(1-cyclobutyl-1H-pyrazol-4-yl)-5-[({1-[2-fluoro-4-(trifluoromethyl)phenyl]cyclopropyl}carbonyl)amino]benzoate]",solubility,"[1]; Buffer pH 4.5, 25° C.",3 mgfree acid/L
same,solubility,"[1]; Buffer pH 7, 25° C.",421 mgfree acid/L
same,solubility,"[1]; Buffer pH 8, 25° C.",5075 mgfree acid/L
same,solubility,[1]; FaSSIF (37° C.) (Fasted State Simulated Intestinal Fluid),426 mgfree acid/L
same,solubility,[1]; FeSSIF (37° C.) (Fed State Simulated Intestinal Fluid),14 mgfree acid/L
same,solubility,"[1]; Water, 25° C.",6176 mgfree acid/L
same,"Change in mass [%], Desorption",[2]; 0% Relative humidity,−3.95%
same,"Change in mass [%], Sorption",[2]; 0% Relative humidity,0.00%
same,"Change in mass [%], Desorption",[2]; 10% Relative humidity,−0.87%
same,"Change in mass [%], Sorption",[2]; 10% Relative humidity,0.85%
same,"Change in mass [%], Desorption",[2]; 20% Relative humidity,0.84%
same,"Change in mass [%], Sorption",[2]; 20% Relative humidity,1.36%
same,"Change in mass [%], Desorption",[2]; 30% Relative humidity,1.91%
same,"Change in mass [%], Sorption",[2]; 30% Relative humidity,1.92%
same,"Change in mass [%], Desorption",[2]; 40% Relative humidity,3.33%
same,"Change in mass [%], Sorption",[2]; 40% Relative humidity,2.95%
same,"Change in mass [%], Desorption",[2]; 50% Relative humidity,5.07%
same,"Change in mass [%], Sorption",[2]; 50% Relative humidity,7.77%
same,"Change in mass [%], Desorption",[2]; 60% Relative humidity,7.95%
same,"Change in mass [%], Sorption",[2]; 60% Relative humidity,11.23%
same,"Change in mass [%], Desorption",[2]; 70% Relative humidity,11.79%
same,"Change in mass [%], Sorption",[2]; 70% Relative humidity,15.05%
same,"Change in mass [%], Desorption",[2]; 80% Relative humidity,16.87%
same,"Change in mass [%], Sorption",[2]; 80% Relative humidity,20.22%
same,"Change in mass [%], Desorption",[2]; 90% Relative humidity,26.84%
same,"Change in mass [%], Sorption",[2]; 90% Relative humidity,30.67%
same,"Change in mass [%], Desorption",[2]; 95% Relative humidity,42.62%
same,"Change in mass [%], Sorption",[2]; 95% Relative humidity,42.62%
same,DVS Dm @ 30% R.H. (Sorption),"[2]; summarized results, 30% R.H.",1.9%
same,DVS Dm @ 50% R.H. (Sorption),"[2]; summarized results, 50% R.H.",5.1%
same,DVS Dm @ 80% R.H. (Sorption),"[2]; summarized results, 80% R.H.",20.2%
same,"Dissolution profile, comparison in words",[3]; micronized samples,no differences
"O=C(O)c1cc(NC(=O)C2(c3ccc(C(F)(F)F)cc3F)CC2)ccc1-c1cnn(C2CCC2)c1 [free acid, 2-(1-cyclobutyl-1H-pyrazol-4-yl)-5-[({1-[2-fluoro-4-(trifluoromethyl)-phenyl]cyclopropyl}carbonyl)amino]benzoic acid]",solubility,"[4]; Acetone, 25° C.",10100 mg/L
same,solubility,"[4]; Acetonitrile, 25° C.",1290 mg/L
same,solubility,"[4]; Ethanol, 25° C.",4260 mg/L
same,solubility,"[4]; PEG 400, 25° C.",6830 mg/L
same,solubility,"[4]; Phosphate buffer pH 7, 25° C.",87 mg/L
same,solubility,"[4]; Solutol/Ethanol/Water (40/10/50 V/V/V), 25° C.",1300 mg/L
same,solubility,"[4]; Water, 25° C., stirred overnight",<1* mg/L
same,pH of the clear solution,"[4]; solubility test in water, pH of water before stirring: 5.57",*pH of the clear solution: 4.6
same,"Change in mass [%], Desorption",[2]; 0% Relative humidity,0.65%
same,"Change in mass [%], Sorption",[2]; 0% Relative humidity,0.06%
same,"Change in mass [%], Desorption",[2]; 10% Relative humidity,0.52%
same,"Change in mass [%], Sorption",[2]; 10% Relative humidity,0.08%
same,"Change in mass [%], Desorption",[2]; 20% Relative humidity,0.42%
same,"Change in mass [%], Sorption",[2]; 20% Relative humidity,0.10%
same,"Change in mass [%], Desorption",[2]; 30% Relative humidity,0.35%
same,"Change in mass [%], Sorption",[2]; 30% Relative humidity,0.12%
same,"Change in mass [%], Desorption",[2]; 40% Relative humidity,0.29%
same,"Change in mass [%], Sorption",[2]; 40% Relative humidity,0.14%
same,"Change in mass [%], Desorption",[2]; 50% Relative humidity,0.16%
same,"Change in mass [%], Sorption",[2]; 50% Relative humidity,0.17%
same,"Change in mass [%], Desorption",[2]; 60% Relative humidity,0.09%
same,"Change in mass [%], Sorption",[2]; 60% Relative humidity,0.20%
same,"Change in mass [%], Desorption",[2]; 70% Relative humidity,0.05%
same,"Change in mass [%], Sorption",[2]; 70% Relative humidity,0.23%
same,"Change in mass [%], Desorption",[2]; 80% Relative humidity,0.03%
same,"Change in mass [%], Sorption",[2]; 80% Relative humidity,0.29%
same,"Change in mass [%], Desorption",[2]; 90% Relative humidity,0.01%
same,"Change in mass [%], Sorption",[2]; 90% Relative humidity,0.44%
same,"Change in mass [%], Desorption",[2]; 95% Relative humidity,0.00%
same,"Change in mass [%], Sorption",[2]; 95% Relative humidity,0.65%
same,"Dissolution in FaSSIF, comparison in words","[3]; FaSSIF, 14 minutes, micronized",dissolved slower
same,"Dissolution in FeSSIF, comparison in words","[3]; FeSSIF, 14 minutes, micronized",significantly slower
same,AUC(0-t),"[5]; rat, 3 mg/kg, dose equiv. 3 mg/kg",24 µg·h/mL
same,AUC(0-t),"[5]; rat, 30 mg/kg, dose equiv. 30 mg/kg",149 µg·h/mL
same,AUC(0-t),"[5]; rat, 100 mg/kg, dose equiv. 100 mg/kg",247 µg·h/mL
same,AUC(0-t),"[5]; rat, 150 mg/kg, dose equiv. 150 mg/kg",225 µg·h/mL
same,AUC(0-tlast)norm,[5]; dose equiv. 3 mg/kg,8.1 kg·h/L
same,AUC(0-tlast)norm,[5]; dose equiv. 30 mg/kg,5 kg·h/L
same,AUC(0-tlast)norm,[5]; dose equiv. 100 mg/kg,2.5 kg·h/L
same,AUC(0-tlast)norm,[5]; dose equiv. 150 mg/kg,1.5 kg·h/L
same,Increase of plasma exposure of free acid with dose,"[5]; rat, doses above 30 mg/kg",much less than dose-proportional increase of exposure
